Tests used:
Testpflanzen [1] = test: Post-emergence-Test (herbicidal); type: in vivo; conditions: test plants 5 - 15 cm high sprayed, damage rated after three weeks vs untreated control (0 % = keine Wirkung, 100 % = totale Vernichtung), rate or species not given
Description: (§1) Lösungsmittel: 5 Gewichtsteile Aceton Emulgator: 1 Gewichtsteil Alkylarylpolyglykolether
(§2) Zur Herstellung einer zweckmäßigen Wirkstoffzubereitung vermischt man 1 Gewichtsteil Wirkstoff mit der angegebenen Menge Lösungsmittel, gibt die angegebene Menge Emulgator zu und verdünnt das Konzentrat mit Wasser auf die gewünschte Konzentration.
Mit der Wirkstoffzubereitung spritzt man Testpflanzen, welche eine Höhe von 5 - 15 cm haben so, daß die jeweils gewünschten Wirkstoffmengen pro Flächeneinheit ausgebracht werden. Die Konzentration der Spritzbrühe wird so gewählt, daß in 2000 1 Wasser/ha die jeweils gewünschten Wirkstoffmengen ausgebracht werden. Nach drei Wochen wird der Schädigungsgrad der Pflanzen bonitiert in % Schädigung im Vergleich zur Entwicklung der unbehandelten Kontrolle.
Es bedeuten: • 0 % = keine Wirkung (wie unbehandelte Kontrolle) 100 % = totale Vernichtung

Testpflanzen [2] = test: Pre-emergence-Test (herbicidal); type: in vivo; conditions: soil watered 24 h after sowing, damage rated after three weeks vs untreated control (0 % = keine Wirkung, 100 % = totale Vernichtung), rate or species not given
Description: as §1, §2
Samen der Testpflanzen werden in normalen Boden ausgesät und nach 24 Stunden mit der Wirkstoffzubereitung begossen. Dabei hält man die Wassermenge pro Flächeneinheit zweckmäßigerweise konstant. Die Wirkstoffkonzentration in der Zubereitung spielt keine Rolle, entscheidend ist nur die Aufwandmenge des Wirkstoffs pro Flächeneinheit. Nach drei Wochen wird der Schädigungsgrad der Pflanzen bonitiert in % Schädigung im Vergleich zur Entwicklung der unbehandelten Kontrolle. Es bedeuten: • 0 % = keine Wirkung (wie unbehandelte Kontrolle) 100 % = totale Vernichtung

Compound | herbizide Wirksamkeit (Testpflanzen [1]) | herbizide Wirksamkeit (Testpflanzen [2])
Cc1cc(C)nc(NC(=NS(=O)(=O)c2ccccc2S(=O)(=O)N(C)C)N(OCC(C)C)S(=O)(=O)c2ccccc2S(=O)(=O)N(C)C)n1.[K] [Beispiel 4, N'-(4,6-Dimethyl-pyrimidin-2-yl)-N''-(2-methyl-propoxy)-N'',N'''-bis-(2-dimethylaminosulfonyl-benzolsulfonyl)-guanidin-Kaliumsalz] | sehr gute herbizide Wirksamkeit | 
Cc1cc(C)nc(NC(=NS(=O)(=O)c2ccccc2S(=O)(=O)N(C)C)NN(C)C)n1 [Beispiel 2, N'-(4,6-Dimethyl-pyrimidin-2-yl)-N''-dimethylamino-N'''-(2-dimethylamino-sulfonyl-benzolsulfonyl)-guanidin] | sehr gute herbizide Wirksamkeit | sehr gute herbizide Wirksamkeit
CON(C(=NS(=O)(=O)c1ccccc1SC)Nc1nc(C)cc(C)n1)S(=O)(=O)c1ccccc1SC [Beispiel 1, N'-(4,6-Dimethyl-pyrimidin-2-yl)-N''-methoxy-N'',N'''-bis-(2-methylthio-benzolsulfonyl)-guanidin] | sehr gute herbizide Wirksamkeit | sehr gute herbizide Wirksamkeit

Reference: EP0173319A1, “Substituted arylsulfonyl guanidines” (BAYER AG, priority 1984, dated 1986)
